Source: PubChem BioAssay (NCI)
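Here, GI50 denotes the concentration required for 50% inhibition of growth. TGI is the concentration that stops growth completely.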

How the values were obtained:
Experiment in all cases: NCI anticancer screen, dose series, 384-well format
[1] = tested on: OVCAR-5 ovarian
[2] = tested on: CAKI-1 renal
[3] = tested on: SF-539 CNS
[4] = tested on: K-562 leukemia
[5] = tested on: PC-3 prostate
[6] = tested on: HS 578T breast
[7] = tested on: NCI-H322M lung
[8] = tested on: M14 melanoma
[9] = tested on: CCRF-CEM leukemia
[10] = tested on: NCI-H226 lung
[11] = tested on: HCT-116 colon
[12] = tested on: BT-549 breast
[13] = tested on: EKVX NSCLC
[14] = tested on: SNB-19 CNS
[15] = tested on: MDA-MB-435 melanoma
[16] = tested on: SNB-75 CNS
[17] = tested on: KM12 colon
[18] = tested on: NCI-H23 lung
[19] = tested on: ACHN renal
[20] = tested on: HCT-15 colon
[21] = tested on: MALME-3M melanoma
[22] = tested on: SK-MEL-28 melanoma
[23] = tested on: SK-OV-3 ovarian
[24] = tested on: MOLT-4 leukemia
[25] = tested on: TK-10 renal
[26] = tested on: UACC-62 melanoma
[27] = tested on: HT29 colon
[28] = tested on: HL-60(TB) leukemia
[29] = tested on: 786-0 renal
[30] = tested on: SW-620 colon
[31] = tested on: OVCAR-8 ovarian
[32] = tested on: HOP-92 NSCLC
[33] = tested on: RPMI-8226 leukemia
[34] = tested on: U251 glioblastoma
[35] = tested on: IGROV1 ovarian
[36] = tested on: LOX IMVI melanoma
[37] = tested on: A549 NSCLC
[38] = tested on: SF-268 CNS
[39] = tested on: OVCAR-4 ovarian
[40] = tested on: NCI/ADR-RES ovarian
[41] = tested on: SF-295 CNS
[42] = tested on: UACC-257 melanoma
[43] = tested on: COLO 205 colon
[44] = tested on: MCF7 breast
[45] = tested on: UO-31 renal
[46] = tested on: NCI-H522 lung
[47] = tested on: HOP-62 NSCLC
[48] = tested on: NCI-H460 NSCLC
[49] = tested on: SK-MEL-5 melanoma
[50] = tested on: MDA-MB-468 breast
[51] = tested on: T-47D breast
[52] = tested on: MDA-MB-231 breast
[53] = tested on: RXF 393 renal
[54] = tested on: HCC-2998 colon
[55] = tested on: A498 renal
[56] = tested on: DU-145 prostate
[57] = tested on: OVCAR-3 ovarian
[58] = tested on: SN12C renal

Work on `C[C@H]1COCCN1c1cc(C2(S(=O)(=O)C3CC3)CC2)nc(-c2ccc(NC(=S)NCCO)cc2)n1` yielded a GI50 [1] of 51.8 nM, a TGI [1] of 7110 nM and a GI50 [2] of 17.8 nM. It also gave a TGI [2] of 214 nM, a GI50 [3] of 29.7 nM and a TGI [3] of 598 nM. It also gave a GI50 [4] of 41.6 nM, a TGI [4] of 16100 nM and a GI50 [5] of 16.7 nM. It also gave a TGI [5] of 4390 nM, a GI50 [6] of less than 10 nM and a TGI [6] of 35.5 nM. It also gave a GI50 [7] of 27.4 nM, a TGI [7] of 15500 nM and a GI50 [8] of 20.7 nM. It also gave a TGI [8] of 1830 nM, a GI50 [9] of 20.6 nM and a TGI [9] of 1630 nM. For the same compound, the GI50 [10] was 19.1 nM, the TGI [10] was 101 nM and the GI50 [11] was 119 nM. For the same compound, the TGI [11] was 16500 nM, the GI50 [12] was 16 nM and the TGI [12] was 121 nM. The GI50 [13] was 40.2 nM, the TGI [13] was 1570 nM and the GI50 [14] was 100 nM. The TGI [14] was 50200 nM, the GI50 [15] was 41.5 nM and the TGI [15] was 3460 nM. It also gave a GI50 [16] of less than 10 nM, a TGI [16] of 50.5 nM and a GI50 [17] of 27.8 nM. For the same compound, the TGI [17] was 17600 nM, the GI50 [18] was 83.1 nM and the TGI [18] was 12500 nM. For the same compound, the GI50 [19] was 55.1 nM, the TGI [19] was 11800 nM and the GI50 [20] was 126 nM. The TGI [20] was 86300 nM, the GI50 [21] was less than 10 nM and the TGI [21] was 84.3 nM. It also gave a GI50 [22] of 26.2 nM, a TGI [22] of 564 nM and a GI50 [23] of 20.1 nM. It also gave a TGI [23] of 626 nM, a GI50 [24] of less than 10 nM and a TGI [24] of 1070 nM. The GI50 [25] was 92.6 nM, the TGI [25] was 900 nM and the GI50 [26] was 15 nM. The TGI [26] was 100 nM, the GI50 [27] was 79.3 nM and the TGI [27] was 15800 nM. The GI50 [28] was 618 nM, the TGI [28] was 15200 nM and the GI50 [29] was 50.8 nM. For the same compound, the TGI [29] was 12600 nM, the GI50 [30] was 130 nM and the TGI [30] was 17800 nM. It also gave a GI50 [31] of 53.4 nM, a TGI [31] of 12700 nM and a GI50 [32] of 25.7 nM. It also gave a TGI [32] of 601 nM, a GI50 [33] of 12 nM and a TGI [33] of 85.3 nM. It also gave a GI50 [34] of 57.2 nM, a TGI [34] of 14900 nM and a GI50 [35] of less than 10 nM. The TGI [35] was 41.9 nM, the GI50 [36] was 27.6 nM and the TGI [36] was 640 nM. For the same compound, the GI50 [37] was 28.9 nM, the TGI [37] was 1410 nM and the GI50 [38] was less than 10 nM. It also gave a TGI [38] of 28.9 nM, a GI50 [39] of 31.8 nM and a TGI [39] of 340 nM. The GI50 [40] was 6720 nM, the TGI [40] was greater than 100000 nM and the GI50 [41] was 34.4 nM. For the same compound, the TGI [41] was 335 nM, the GI50 [42] was 46.3 nM and the TGI [42] was 827 nM. It also gave a GI50 [43] of 19.6 nM, a TGI [43] of 3340 nM and a GI50 [44] of less than 10 nM. For the same compound, the TGI [44] was 5510 nM, the GI50 [45] was 121 nM and the TGI [45] was 14000 nM. It also gave a GI50 [46] of less than 10 nM, a TGI [46] of 6640 nM and a GI50 [47] of 39.1 nM. It also gave a TGI [47] of 540 nM, a GI50 [48] of less than 10 nM and a TGI [48] of 11500 nM. The GI50 [49] was 11.8 nM, the TGI [49] was 58.5 nM and the GI50 [50] was less than 10 nM. The TGI [50] was 31.9 nM, the GI50 [51] was less than 10 nM and the TGI [51] was 17.9 nM. It also gave a GI50 [52] of 34.2 nM, a TGI [52] greater than 100000 nM and a GI50 [53] of 25.9 nM. For the same compound, the TGI [53] was 310 nM, the GI50 [54] was 98.6 nM and the TGI [54] was 18600 nM. The GI50 [55] was less than 10 nM, the TGI [55] was 53.1 nM and the GI50 [56] was 59.1 nM. It also gave a TGI [56] of 18800 nM, a GI50 [57] of 38 nM and a TGI [57] of 6600 nM. For the same compound, the GI50 [58] was 18.4 nM and the TGI [58] was 12200 nM.
